The values that follow come from PMC12386980, “Functional Analysis of NPC2 in Alarm Pheromone Recognition by the Red Imported Fire Ant, Solenopsis invicta (Formicidae: Solenopsis)” (Insects, 2025).

Assay [1] concerns the target T1, SinvNPC2a (Solenopsis invicta, UniProt Z9QIP2HJ34).
T1 construct: recombinant from pET28a in E. coli BL21(DE3) pLysS, soluble, Ni-IDA purified
The assay is described as follows: fluorescence competitive binding assay, 1-NPN displacement.

Assay [2] concerns the target T1, SinvNPC2a. The assay is described as above. The source holds these as a separate data set.

T1 sequence (Z9QIP2HJ34 21-153 limits assumed): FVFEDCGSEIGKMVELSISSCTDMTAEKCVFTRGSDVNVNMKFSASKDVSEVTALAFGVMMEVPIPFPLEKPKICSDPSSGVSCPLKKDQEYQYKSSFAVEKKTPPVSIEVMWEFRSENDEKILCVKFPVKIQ

In general, Ki refers to the equilibrium dissociation constant of an inhibitor or competing ligand from its target. The low end stands for a stronger hold on the target, the high end for a looser hold on the target. In general, IC50 refers to the concentration that inhibits the measured activity by half. At SinvNPC2a [1], `CCc1nc(C)cnc1C` [EDMP, 2-ethyl-3,6-dimethylpyrazine] came in with an inhibition constant (Ki) of 5.09 ± 1.51 µM. The compound further displayed an IC50 on SinvNPC2a [2] of 9.82 µM.
